What all share (test): biochemical
Parameters in all cases: KINOMEscan scanMAX competition binding, DNA-tagged kinases, qPCR read-out, percent control at 300 nM

Assay [1] has as its target PAK2 (Homo sapiens, UniProt Q13177). Particulars: read-out: Percent control / Zanubrutinib.
Assay [2] addresses PLK2 (Homo sapiens, UniProt Q9NYY3). Particulars: read-out: Percent control / Zanubrutinib.
Assay [3] addresses T1, TRKC (Homo sapiens, UniProt Q16288).
T1 construct: gene NTRK3
Particulars: read-out: Percent control / Zanubrutinib.

The target of assay [4] is MTOR (Homo sapiens, UniProt P42345). Particulars: read-out: Percent control / Zanubrutinib.
The target in assay [5] is GRK1 (Homo sapiens, UniProt Q15835). Particulars: read-out: Percent control / Zanubrutinib.
Chain of GRK1 (Q15835 whole entry): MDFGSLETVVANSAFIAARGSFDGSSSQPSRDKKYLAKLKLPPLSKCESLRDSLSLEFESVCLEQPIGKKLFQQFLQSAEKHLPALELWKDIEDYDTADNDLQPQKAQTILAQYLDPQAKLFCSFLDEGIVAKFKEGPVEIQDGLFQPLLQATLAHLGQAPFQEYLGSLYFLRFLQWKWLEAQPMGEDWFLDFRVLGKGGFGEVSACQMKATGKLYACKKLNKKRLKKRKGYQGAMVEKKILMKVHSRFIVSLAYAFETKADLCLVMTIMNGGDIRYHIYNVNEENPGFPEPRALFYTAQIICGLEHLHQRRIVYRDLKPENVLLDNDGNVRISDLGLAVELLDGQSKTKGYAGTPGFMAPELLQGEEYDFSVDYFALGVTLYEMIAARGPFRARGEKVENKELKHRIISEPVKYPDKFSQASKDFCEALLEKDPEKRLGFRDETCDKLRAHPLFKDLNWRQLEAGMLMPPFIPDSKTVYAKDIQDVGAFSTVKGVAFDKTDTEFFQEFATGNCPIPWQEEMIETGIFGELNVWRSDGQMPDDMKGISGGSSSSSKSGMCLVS
Assay [6] addresses T2, MST1 (Homo sapiens, UniProt Q13043).
T2 construct: gene STK4
Particulars: read-out: Percent control / Zanubrutinib.

Assay [7] concerns the target ACVR1 (Homo sapiens, UniProt Q04771). Particulars: read-out: Percent control / Zanubrutinib.
Assay [8] has as its target T3, PCTK1 (Homo sapiens, UniProt Q00536).
T3 construct: gene CDK16
Particulars: read-out: Percent control / Zanubrutinib.

Assay [9] has as its target PRKG2 (Homo sapiens, UniProt Q13237). Particulars: read-out: Percent control / Zanubrutinib.
The target of assay [10] is PRKG1 (Homo sapiens, UniProt Q13976). Particulars: read-out: Percent control / Tirabrutinib.
Chain of PRKG1 (Q13976 whole entry): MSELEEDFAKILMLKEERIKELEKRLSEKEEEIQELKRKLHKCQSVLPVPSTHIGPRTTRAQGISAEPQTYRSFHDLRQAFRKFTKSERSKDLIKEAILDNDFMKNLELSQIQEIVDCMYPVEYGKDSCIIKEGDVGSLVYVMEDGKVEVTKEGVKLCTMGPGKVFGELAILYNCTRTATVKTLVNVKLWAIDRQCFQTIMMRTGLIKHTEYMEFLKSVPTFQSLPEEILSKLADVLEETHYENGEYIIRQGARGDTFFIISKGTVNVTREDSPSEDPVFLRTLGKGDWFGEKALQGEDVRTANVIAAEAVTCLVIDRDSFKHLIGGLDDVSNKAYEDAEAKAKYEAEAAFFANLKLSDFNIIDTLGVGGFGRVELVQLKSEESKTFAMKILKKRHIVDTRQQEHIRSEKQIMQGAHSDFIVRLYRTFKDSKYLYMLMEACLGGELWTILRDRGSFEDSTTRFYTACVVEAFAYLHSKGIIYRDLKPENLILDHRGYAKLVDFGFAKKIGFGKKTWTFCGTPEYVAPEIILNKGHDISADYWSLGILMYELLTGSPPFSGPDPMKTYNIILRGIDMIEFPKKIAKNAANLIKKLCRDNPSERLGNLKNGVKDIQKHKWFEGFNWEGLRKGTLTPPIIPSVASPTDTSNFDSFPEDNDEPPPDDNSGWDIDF
The target in assay [11] is EGFR(L861Q) (Homo sapiens, UniProt P00533, L861Q). Particulars: read-out: Percent control / Tirabrutinib.
The target in assay [12] is ALK (Homo sapiens, UniProt Q9UM73). Particulars: read-out: Percent control / Ibrutinib.
Assay [13] deals with DAPK3 (Homo sapiens, UniProt O43293). Particulars: read-out: Percent control / Ibrutinib.
Chain of DAPK3 (O43293 whole entry): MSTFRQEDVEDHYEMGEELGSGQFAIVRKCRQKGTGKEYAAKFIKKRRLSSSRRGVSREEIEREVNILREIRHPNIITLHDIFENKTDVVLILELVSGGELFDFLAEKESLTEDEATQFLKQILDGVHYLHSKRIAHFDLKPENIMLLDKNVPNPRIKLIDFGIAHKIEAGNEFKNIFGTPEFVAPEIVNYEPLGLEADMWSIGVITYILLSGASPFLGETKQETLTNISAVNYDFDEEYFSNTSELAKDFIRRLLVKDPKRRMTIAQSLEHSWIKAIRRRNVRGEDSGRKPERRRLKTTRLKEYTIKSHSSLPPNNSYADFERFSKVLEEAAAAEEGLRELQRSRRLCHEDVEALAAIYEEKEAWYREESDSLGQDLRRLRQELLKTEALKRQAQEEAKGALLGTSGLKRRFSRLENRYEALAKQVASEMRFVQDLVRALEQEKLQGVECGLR
The target of assay [14] is EPHA6 (Homo sapiens, UniProt Q9UF33). Particulars: read-out: Percent control / Acalabrutinib.
Assay [15] deals with NEK5 (Homo sapiens, UniProt Q6P3R8). Particulars: read-out: Percent control / Acalabrutinib.
Assay [16] addresses PRKD3 (Homo sapiens, UniProt O94806). Particulars: read-out: Percent control / Acalabrutinib.
In assay [17] the target is T4, ABL1(Q252H)-nonphosphorylated (Homo sapiens, UniProt P00519, Q252H).
T4 construct: nonphosphorylated
Particulars: read-out: Percent control / Acalabrutinib.

Assay [18] concerns the target T5, PYK2 (Homo sapiens, UniProt Q14289).
T5 construct: gene PTK2B
Particulars: read-out: Percent control / Acalabrutinib.

Assay [19] has as its target T6, p38-gamma (Homo sapiens, UniProt P53778).
T6 construct: gene MAPK12
Particulars: read-out: Percent control / Acalabrutinib.

The target of assay [20] is T7, NDR2 (Homo sapiens, UniProt Q9Y2H1).
T7 construct: gene STK38L
T7 sequence (Q9Y2H1 whole entry): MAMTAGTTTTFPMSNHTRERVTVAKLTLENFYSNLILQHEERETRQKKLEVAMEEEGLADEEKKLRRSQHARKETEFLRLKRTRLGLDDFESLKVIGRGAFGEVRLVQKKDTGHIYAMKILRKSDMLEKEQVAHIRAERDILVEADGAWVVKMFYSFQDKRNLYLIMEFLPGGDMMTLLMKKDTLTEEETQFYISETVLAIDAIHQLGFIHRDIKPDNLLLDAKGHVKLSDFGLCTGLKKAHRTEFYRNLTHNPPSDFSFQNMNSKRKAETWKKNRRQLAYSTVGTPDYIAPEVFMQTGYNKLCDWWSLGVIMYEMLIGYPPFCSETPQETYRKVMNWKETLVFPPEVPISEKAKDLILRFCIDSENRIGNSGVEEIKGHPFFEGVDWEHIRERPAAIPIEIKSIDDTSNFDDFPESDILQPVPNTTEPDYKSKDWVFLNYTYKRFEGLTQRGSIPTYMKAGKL
Particulars: read-out: Percent control / Acalabrutinib.

In assay [21] the target is TAOK2 (Homo sapiens, UniProt Q9UL54). Particulars: read-out: Percent control / Acalabrutinib.
Chain of TAOK2 (Q9UL54 whole entry): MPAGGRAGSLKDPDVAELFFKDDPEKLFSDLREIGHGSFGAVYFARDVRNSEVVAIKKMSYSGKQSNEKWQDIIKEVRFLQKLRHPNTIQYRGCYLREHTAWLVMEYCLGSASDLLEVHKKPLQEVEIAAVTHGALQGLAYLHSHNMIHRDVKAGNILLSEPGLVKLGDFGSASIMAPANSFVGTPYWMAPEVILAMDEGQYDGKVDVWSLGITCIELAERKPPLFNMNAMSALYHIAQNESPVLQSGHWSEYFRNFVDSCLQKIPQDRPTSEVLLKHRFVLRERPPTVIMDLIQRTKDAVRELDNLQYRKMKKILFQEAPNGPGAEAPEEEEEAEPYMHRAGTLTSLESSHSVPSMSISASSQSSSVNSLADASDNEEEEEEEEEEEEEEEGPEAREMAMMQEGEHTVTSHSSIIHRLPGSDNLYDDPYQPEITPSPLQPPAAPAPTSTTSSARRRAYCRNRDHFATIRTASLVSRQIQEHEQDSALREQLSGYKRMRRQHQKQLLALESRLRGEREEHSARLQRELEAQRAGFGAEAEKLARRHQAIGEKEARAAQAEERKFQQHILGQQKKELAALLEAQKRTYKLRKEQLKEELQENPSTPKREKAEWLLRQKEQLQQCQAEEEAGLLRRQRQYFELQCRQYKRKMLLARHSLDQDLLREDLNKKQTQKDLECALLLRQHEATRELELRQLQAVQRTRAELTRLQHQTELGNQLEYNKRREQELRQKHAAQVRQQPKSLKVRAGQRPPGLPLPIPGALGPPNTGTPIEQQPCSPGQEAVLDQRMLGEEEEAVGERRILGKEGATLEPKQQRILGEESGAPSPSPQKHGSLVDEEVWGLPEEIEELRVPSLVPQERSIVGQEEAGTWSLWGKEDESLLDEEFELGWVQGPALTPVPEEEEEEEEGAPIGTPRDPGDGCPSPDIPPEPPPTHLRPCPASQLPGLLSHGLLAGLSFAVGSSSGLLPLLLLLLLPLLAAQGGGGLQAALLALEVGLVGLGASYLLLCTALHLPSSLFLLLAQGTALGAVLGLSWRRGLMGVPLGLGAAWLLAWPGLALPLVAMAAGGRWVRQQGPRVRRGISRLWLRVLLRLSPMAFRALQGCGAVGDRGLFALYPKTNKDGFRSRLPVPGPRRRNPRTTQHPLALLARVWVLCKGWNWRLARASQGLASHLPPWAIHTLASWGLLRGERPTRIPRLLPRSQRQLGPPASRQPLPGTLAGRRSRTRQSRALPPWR
Assay [22] has as its target T8, ABL1-nonphosphorylated (Homo sapiens, UniProt P00519).
T8 construct: nonphosphorylated
Particulars: read-out: Percent control / Acalabrutinib.

Assay [23] deals with SIK2 (Homo sapiens, UniProt Q9H0K1). Particulars: read-out: Percent control / Acalabrutinib.

Chain of PRKG2 (Q13237 whole entry): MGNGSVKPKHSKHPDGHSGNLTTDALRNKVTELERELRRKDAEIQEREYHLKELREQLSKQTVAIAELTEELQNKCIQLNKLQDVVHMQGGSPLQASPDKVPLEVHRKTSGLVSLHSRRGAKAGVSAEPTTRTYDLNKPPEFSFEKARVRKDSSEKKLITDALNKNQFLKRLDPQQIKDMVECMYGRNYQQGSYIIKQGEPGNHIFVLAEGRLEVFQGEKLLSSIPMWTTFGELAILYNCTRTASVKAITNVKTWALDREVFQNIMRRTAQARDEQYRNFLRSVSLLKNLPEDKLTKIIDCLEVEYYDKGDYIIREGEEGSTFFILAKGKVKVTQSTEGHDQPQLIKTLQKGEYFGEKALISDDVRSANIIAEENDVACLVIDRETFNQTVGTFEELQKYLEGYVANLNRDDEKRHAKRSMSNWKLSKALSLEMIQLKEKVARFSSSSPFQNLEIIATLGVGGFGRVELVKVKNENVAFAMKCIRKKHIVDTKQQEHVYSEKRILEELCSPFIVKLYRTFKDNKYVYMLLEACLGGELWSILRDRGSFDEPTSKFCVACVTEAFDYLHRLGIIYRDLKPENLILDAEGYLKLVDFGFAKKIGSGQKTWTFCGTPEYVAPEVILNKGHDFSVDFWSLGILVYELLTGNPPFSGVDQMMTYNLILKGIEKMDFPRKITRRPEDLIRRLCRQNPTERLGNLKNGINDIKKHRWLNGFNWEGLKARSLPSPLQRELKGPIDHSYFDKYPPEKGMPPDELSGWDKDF
Chain of PAK2 (Q13177 whole entry): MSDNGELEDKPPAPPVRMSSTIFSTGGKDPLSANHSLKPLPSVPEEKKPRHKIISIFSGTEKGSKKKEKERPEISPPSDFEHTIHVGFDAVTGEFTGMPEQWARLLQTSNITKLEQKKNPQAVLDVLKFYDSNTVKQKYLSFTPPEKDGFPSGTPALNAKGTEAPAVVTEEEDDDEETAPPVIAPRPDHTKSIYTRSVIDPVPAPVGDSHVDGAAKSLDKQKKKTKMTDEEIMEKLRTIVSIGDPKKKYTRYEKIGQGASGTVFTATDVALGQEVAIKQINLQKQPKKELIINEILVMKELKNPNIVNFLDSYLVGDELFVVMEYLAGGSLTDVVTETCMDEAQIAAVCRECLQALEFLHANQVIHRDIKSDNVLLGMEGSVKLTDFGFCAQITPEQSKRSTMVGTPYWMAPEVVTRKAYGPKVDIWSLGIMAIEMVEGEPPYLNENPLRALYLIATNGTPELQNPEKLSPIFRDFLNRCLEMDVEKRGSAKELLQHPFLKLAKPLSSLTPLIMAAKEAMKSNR
T6 sequence (P53778 whole entry): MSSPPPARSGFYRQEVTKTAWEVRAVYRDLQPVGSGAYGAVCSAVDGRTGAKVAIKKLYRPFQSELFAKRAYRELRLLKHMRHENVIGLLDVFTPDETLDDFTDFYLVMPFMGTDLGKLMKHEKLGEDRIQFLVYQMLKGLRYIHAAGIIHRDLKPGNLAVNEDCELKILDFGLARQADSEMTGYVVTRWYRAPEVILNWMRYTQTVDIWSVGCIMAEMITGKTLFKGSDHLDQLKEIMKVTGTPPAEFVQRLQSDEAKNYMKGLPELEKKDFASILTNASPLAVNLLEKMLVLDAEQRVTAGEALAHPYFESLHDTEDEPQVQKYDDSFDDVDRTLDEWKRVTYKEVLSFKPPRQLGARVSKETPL

In the case of `C=CC(=O)N1CCC([C@@H]2CCNc3c(C(N)=O)c(-c4ccc(Oc5ccccc5)cc4)nn32)CC1` [Zanubrutinib], the remaining binding at 0.3 µM was found to be 83% in [1]; 100% in [2]; 97% in assay [3]; 88% in assay [4]; 100% in assay [5]; 90% in assay [6]. For the same compound, the remaining binding at 0.3 µM amounted to 100% in [7], 100% in [8] and 85% in assay [9].

With `CC#CC(=O)N1CC[C@@H](n2c(=O)n(-c3ccc(Oc4ccccc4)cc3)c3c(N)ncnc32)C1` [Tirabrutinib], the remaining binding at 0.3 µM in assay [10] was 90%; in assay [11], 86%.

`C=CC(=O)N1CCC[C@@H](n2nc(-c3ccc(Oc4ccccc4)cc3)c3c(N)ncnc32)C1` [Ibrutinib]: the remaining binding at 0.3 µM in assay [12] stood at 87%; in assay [13], 92%.

For `CC#CC(=O)N1CCC[C@H]1c1nc(-c2ccc(C(=O)Nc3ccccn3)cc2)c2c(N)nccn12` [Acalabrutinib], the remaining binding at 0.3 µM in assay [14] came out at 93%; in [15], 96%; in [16] it was 81%; in assay [17], 84%; in assay [18], 89%; in assay [19], 75%. The remaining binding at 0.3 µM in assay [20] is 99%; in [21], 93%; in assay [22], 87%; in [23], 90%.
